Experimental data taken from patent publication US20090305993A1, “METHODS AND COMPOSITION FOR THE TREATMENT OF GASTROINTESTINAL DISORDERS” (IRONWOOD PHARMACEUTICALS, INC., priority 2006, published 2009).
Where a SMILES comes first, the peptide text is derived from it. Bridges are numbered along the chain shown (N, C = ends).

Columns and labels:
Male Wistar rats = assay: TNBS visceral hypersensitivity rat model (colorectal distension, EMG); type: in vivo; conditions: 0.3 μg/kg and 3 μg/kg, after TNBS, FIG. 7a
Procedure: Male Wistar rats (220-250 g) were premedicated with 0.5 mg/kg of acepromazine injected intraperitoneally (IP) and anesthetized by intramuscular administration of 100 mg/kg of ketamine. Pairs of nichrome wire electrodes (60 cm in length and 80 μm in diameter) were implanted in the striated muscle of the abdomen, 2 cm laterally from the white line. The free ends of electrodes were exteriorized on the back of the neck and protected by a plastic tube attached to the skin. Electromyographic (EMG) recordings were started 5 days after surgery. Electrical activity of abdominal striated muscle was recorded with an electroencephalograph machine (Mini VIII, Alvar, Paris, France) using a short time constant (0.03 sec.) to remove low-frequency signals (<3 Hz).
Ten days post surgical implantation, trinitrobenzenesulphonic acid (TNBS) was administered to induce rectal inflammation. TNBS (80 mg kg^−1 in 0.3 ml 50% ethanol) was administered intrarectally through a silicone rubber catheter introduced at 3 cm from the anus under light diethyl-ether anesthesia, as described (Morteau et al. 1994 Dig Dis Sci 39:1239). […] Evaluation of rectal sensitivity, as measured by EMG, was performed before (1-2 days) and 3 days following rectal instillation of TNBS.
The number of spike bursts that corresponds to abdominal contractions was determined per 5 min periods. […]

[1] = absorbability study in mice, ELISA detection; type: in vivo; conditions: CD1, mouse, serum, IV and oral, FIG. 10a, read-out: bioavailable
Procedure: To study the pharmacokinetics of SEQ ID NO:3, absorbability studies in mice were performed by administering SEQ ID NO:3 intravaneously via tail vein injection or orally by gavage to 8-week-old CD1 mice. Serum was collected from the animals at various time points and tested for the presence of SEQ ID NO:3 using a competitive enzyme-linked immunoabsorbent assay (Oxoid, ST EIA kit, Cat#TD0700). The assay utilized monoclonal antibodies against ST peptide (antibodies are provided in the Oxoid kit) and synthetically manufactured SEQ ID NO:3.

[2] = bioavailability study in mice, LCMS detection; type: in vivo; conditions: CD1, mouse, serum, IV and oral, FIG. 10b, read-out: bioavailable
Procedure: A similar bioavailability study was performed in which LCMS rather than ELISA was used to detect SEQ ID NO:3. Initially, serum samples were extracted from the whole blood of exposed and control mice, then injected directly ([…]) onto an in-line solid phase extraction (SPE) column (Waters Oasis HLB 25 μm column, 2.0×15 mm direct connect) without further processing. The sample on the SPE column was washed with a 5% methanol, 95% dH2O solution (2.1 mL/min, 1.0 minute), then loaded onto an analytical column using a valve switch that places the SPE column in an inverted flow path onto the analytical column (Waters Xterra MS C8 5 μm IS column, 2.1×20 mm). The sample was eluted from the analytical column with a reverse phase gradient (Mobile Phase A: 10 mM ammonium hydroxide in dH2O, Mobile Phase B: 10 mM ammonium hydroxide in 80% acetonitrile and 20% methanol; 20% B for the first 3 minutes then ramping to 95% B over 4 min. and holding for 2 min., all at a flow rate of 0.4 mL/min.). At 9.1 minutes, the gradient returns to the initial conditions of 20% B for 1 min. SEQ ID NO:3 eluted from the analytical column at 1.45 minutes, and was detected by triple-quadrapole mass spectrometry (MRM, 764 (+2 charge state)>182 (+1 charge state) Da; cone voltage=30V; collision=20 eV; parent resolution=2 Da at base peak; daughter resolution=2 Da at base peak). […]

[3] = system: healthy males and postmenopausal females; assay: single oral dose study in humans, bowel habits (BSFS); type: in vivo, human
Procedure: Single doses of 30, 100, 300, 1000 or 3000 μg of chemically synthesized SEQ ID NO:3 were given to 30 healthy males and postmenopausal females. At each dose level (100 μg was done twice) SEQ ID NO:3 or placebo (vehicle) was administered orally in 5.0 mL 50 mM phosphate buffer (pH 6.0) plus 3×20 mL water rinses and 175 mL water after at least a 10-hour fast. In each dosing group, subjects were randomized to receive either placebo (1 subject) or SEQ ID NO:3 (3-4 subjects). Bowel habits (including Bristol Stool Form Scale score (BSFS; FIG. 14a), stool frequency, and stool weight) were evaluated for each collected bowel movement 48 hours prior to dose and up to approximately 48 hours postdose.

pepsin = pepsin (Sus scrofa, UniProt P00791); conditions: pH 2.0, 37° C., up to 3 h
Procedure: Samples were collected at 0, 3, and 24 h for all conditions except pepsin digestion and the SGF. For the latter two conditions, samples were obtained at 0, 1, and 3 h. Negative control samples were prepared for initial and final time points. […] All samples were analyzed by LC/MS
500 μL samples of 100 U/mL pepsin (Pepsin porcine gastric mucosa; Sigma-Aldrich, P68871; U=release of 0.01 absorbance at 280 nm (A280) as TCA soluble hydrolysis products per min at 37° C. of hemoglobin) were prepared in the pepsin reaction buffer (100 mM HCl-KCl, pH 2.0) in 5 mL polystyrene round bottom tubes. To the control samples (0 and 24 h), 500 μL of a 1 M ammonium acetate (pepsin inhibitor) stock were added, for a final concentration of 0.5 M. All control and test samples (0, 1, and 3 h) were incubated at 37° C. for 5 min, while shaking. […] Samples were returned to the 37° C. shaking water bath. Reactions were quenched by the addition of 500 μL of 1 M ammonium acetate for a final concentration of 0.5 M (except to the control samples, which already contained 0.5 M ammonium acetate). Samples were cooled on ice and stored at 4° C. until analysis. Upon analysis, samples were transferred to a 1 mL 96-well plate. […] These standards were used to generate a standard curve for quantification of samples. Ten (10) μL injections were made of each sample and standard.

[4] = system: wild-type or GC-C KO mice; conditions: 5 μg into loop, FIG. 17a
Procedure: The effect of SEQ ID NO:3 on cGMP levels and secretion were studied by injecting SEQ ID NO:3 directly into an isolated loop in either wild-type or GC-C KO mice. This was done by surgically ligating a loop in the small intestine of the mouse. […] The loop was roughly centered and was a length of 1-3 cm. The loops were injected with 100 μl of either SEQ ID NO:3 (5 μg) or vehicle (20 mM Tris, pH 7.5 or Krebs Ringer, 10 mM Glucose, HEPES buffer (KRGH)). Following a recovery time of 90 minutes the loops were excised. Weights were recorded for each loop before and after removal of the fluid contained therein. The length of each loop was also recorded. A weight to length ratio (W/L) for each loop was calculated to determine the effects of SEQ ID NO:3 on secretion.
To determine the effect of SEQ ID NO:3 on cGMP activity, fluid from the loop was collected in ice-cold trichloracetic acid (TCA) and stored at −80° C. for use in an assay to measure cGMP levels in the fluid. Intestinal fluid samples were TCA extracted, and cyclic GMP was measured by EIA according to procedures outlined in the Cayman Chemical Cyclic GMP EIA kit (Cayman Chemical, Ann Arbor, Mich.) to determine cyclic GMP levels in the intestinal fluid of the mouse in the presence of either SEQ ID NO:3 or vehicle.

Sequence of pepsin (P00791 60-385): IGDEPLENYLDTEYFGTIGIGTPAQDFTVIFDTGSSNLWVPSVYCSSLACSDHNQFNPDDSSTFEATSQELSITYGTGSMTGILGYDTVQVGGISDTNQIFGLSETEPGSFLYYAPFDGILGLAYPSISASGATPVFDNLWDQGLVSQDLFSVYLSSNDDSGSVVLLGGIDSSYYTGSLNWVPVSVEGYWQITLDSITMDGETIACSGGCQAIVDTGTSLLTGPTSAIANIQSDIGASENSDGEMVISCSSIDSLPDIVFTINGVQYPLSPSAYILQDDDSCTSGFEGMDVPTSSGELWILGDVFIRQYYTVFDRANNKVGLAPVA

## C[C@@H]1NC(=O)[C@@H]2CCCN2C(=O)[C@H](CC(N)=O)NC(=O)[C@@H]2CSSC[C@H](N)C(=O)N[C@H]3CSSC[C@H](NC1=O)C(=O)N[C@@H]([C@@H](C)O)C(=O)NCC(=O)N[C@H](C(=O)N[C@@H](Cc1ccc(O)cc1)C(=O)O)CSSC[C@H](NC(=O)[C@H](Cc1ccc(O)cc1)NC(=O)[C@H](CCC(=O)O)NC3=O)C(=O)N2 [SEQ ID NO:3] (H-CCEYCCNPACTGCY-OH; disulfide 1-6, 2-10, 5-13; N-terminus and C-terminus assumed)
Male Wistar rats
  abdominal response to colorectal distension: Significant decreases in abdominal response
[1]
  bioavailability: < 2.2%
[2]
  bioavailability: < 0.11%
[3]; 1000 μg dose group, mean pre-dose compared to peak 48 hours post-dose, FIG. 14c
  percent of subjects with at least a 2-point increase in BSFS consistency score: highest percent of subjects
[3]; single oral dose 30-3000 μg
  BSFS post-dose scores versus dose: Higher BSFS post-dose scores correlated with a higher dose
[3]; single oral dose 30-3000 μg, FIG. 14b
  maximum BSFS score: increase
pepsin
  Cleavage of SEQ ID NO: 3 by proteolytic substance: not detectable
[4]
  cGMP activity in ligated loop fluid: no effect
  secretion (loop weight to length ratio): no effect
